Experimental data reported in PubChem BioAssay AID256 (DTP/NCI, 2004).
Values joined by “and” are separate entries in the source; they are usually repeats but may differ in a detail not shown here. Equal entries are not always repeated. Inconclusive results and toxic doses are left out. The calls were made as follows: active = survival T/C of 150% or more; inactive = T/C below 125% in these data.

System: CD2F1 mice, L1210 leukemia ip, survival T/C
Experiment: NCI In Vivo Anticancer Drug Screen. Data for tumor model L1210 Leukemia (intraperitoneal) in CD2F1 (CDF1) mice
Settings: endpoint: mean survival time, higher = longer survival
Procedure, shortened: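 Compound-dosed mice with transplantable tumor versus matched vehicle controls; endpoint ratio T/C reported.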

Measured: T/C

COc1cccc(/C=C/C(=O)O)c1OC
inactive: dose: 25.0 mg/kg/injection, schedule: Q01DX009 (ip), vehicle: water 88 % of control | dose: 50.0 mg/kg/injection, schedule: Q01DX009 (ip), vehicle: water 88 % of control | dose: 100.0 mg/kg/injection, schedule: Q01DX009 (ip), vehicle: water 101 % of control | dose: 200.0 mg/kg/injection, schedule: Q01DX009 (ip), vehicle: water 95 % of control | dose: 400.0 mg/kg/injection, schedule: Q01DX009 (ip), vehicle: water 95 % of control

Cc1c([N+](=O)[O-])cc(C(C)(C)C)c(OC(=S)N(C)C)c1[N+](=O)[O-]
inactive: dose: 6.25 mg/kg/injection, schedule: Q01DX009 (ip), vehicle: saline with Tween-80 93 % of control | dose: 12.5 mg/kg/injection, schedule: Q01DX009 (ip), vehicle: saline with Tween-80 95 % of control | dose: 25.0 mg/kg/injection, schedule: Q01DX009 (ip), vehicle: saline with Tween-80 89 % of control

CCOC(=O)C(CCCl)C(=O)OCC
inactive: dose: 100.0 mg/kg/injection, schedule: Q01DX001 (ip), vehicle: saline 104 % of control | dose: 200.0 mg/kg/injection, schedule: Q01DX001 (ip), vehicle: saline 104 % of control | dose: 400.0 mg/kg/injection, schedule: Q01DX001 (ip), vehicle: saline 101 % of control

Nc1nncs1
inactive: dose: 1.0 mg/kg/injection, schedule: Q01DX005 (ip), vehicle: water 94 % of control | dose: 2.0 mg/kg/injection, schedule: Q01DX005 (ip), vehicle: water 96 % of control | dose: 4.0 mg/kg/injection, schedule: Q01DX005 (ip), vehicle: water 96 % of control | dose: 8.0 mg/kg/injection, schedule: Q01DX005 (ip), vehicle: water 98 % of control | dose: 8.0 mg/kg/injection, schedule: Q03HX008 (ip), vehicle: alkali diluted with saline 123 % of control | dose: 8.0 mg/kg/injection, schedule: Q03HX016 (ip), vehicle: alkali diluted with saline 116 % of control | dose: 16.0 mg/kg/injection, schedule: Q01DX005 (ip), vehicle: water 108 % of control | dose: 16.0 mg/kg/injection, schedule: Q01DX005 (iv), vehicle: alkali diluted with saline 110 % of control | dose: 16.0 mg/kg/injection, schedule: Q01DX009 (oral), vehicle: other 108 % of control | dose: 23.4 mg/kg/injection, schedule: Q04DX003 (ip), vehicle: water 103 % of control | dose: 32.0 mg/kg/injection, schedule: Q01DX001 (iv), vehicle: alkali diluted with saline 107 % of control | dose: 32.0 mg/kg/injection, schedule: Q01DX009 (ip), vehicle: other 123 % of control | dose: 32.0 mg/kg/injection, schedule: Q01DX009 (ip), vehicle: saline with Tween-80 120 % of control | dose: 32.0 mg/kg/injection, schedule: Q01DX009 (oral), vehicle: other 107 % of control | dose: 32.0 mg/kg/injection, schedule: Q03HX008 (ip), vehicle: saline 120 % of control | dose: 32.0 mg/kg/injection, schedule: Q03HX024 (ip), vehicle: saline 104 % of control | dose: 32.0 mg/kg/injection, schedule: Q04DX003 (ip), vehicle: alkali diluted with saline 111 % of control | dose: 32.0 mg/kg/injection, schedule: Q04DX003 (ip), vehicle: other 106 % of control | dose: 39.0 mg/kg/injection, schedule: Q04DX003 (ip), vehicle: water 117 % of control and 105 % of control | dose: 50.0 mg/kg/injection, schedule: Q04DX003 (ip), vehicle: water 106 % of control | dose: 62.5 mg/kg/injection, schedule: Q04DX003 (ip), vehicle: water 103 % of control and 107 % of control | dose: 64.0 mg/kg/injection, schedule: Q01DX001 (ip), vehicle: alkali diluted with saline 112 % of control | dose: 64.0 mg/kg/injection, schedule: Q01DX001 (ip), vehicle: other 109 % of control | dose: 64.0 mg/kg/injection, schedule: Q01DX001 (iv), vehicle: alkali diluted with saline 112 % of control | dose: 64.0 mg/kg/injection, schedule: Q01DX001 (oral), vehicle: alkali diluted with saline 111 % of control | dose: 64.0 mg/kg/injection, schedule: Q01DX001 (oral), vehicle: other 94 % of control | dose: 64.0 mg/kg/injection, schedule: Q01DX001 (sc), vehicle: alkali diluted with saline 115 % of control | dose: 64.0 mg/kg/injection, schedule: Q01DX009 (ip), vehicle: other 103 % of control | dose: 64.0 mg/kg/injection, schedule: Q01DX009 (ip), vehicle: saline with Tween-80 104 % of control and 107 % of control | dose: 64.0 mg/kg/injection, schedule: Q01DX009 (ip), vehicle: saline 109 % of control | dose: 64.0 mg/kg/injection, schedule: Q01DX009 (oral), vehicle: other 86 % of control | dose: 64.0 mg/kg/injection, schedule: Q03HX024 (ip), vehicle: alkali diluted with saline 97 % of control | dose: 64.0 mg/kg/injection, schedule: Q04DX003 (ip), vehicle: other 123 % of control | dose: 64.0 mg/kg/injection, schedule: Q08DX002 (ip), vehicle: alkali diluted with saline 114 % of control | dose: 64.0 mg/kg/injection, schedule: Q08DX002 (ip), vehicle: other 105 % of control | dose: 65.0 mg/kg/injection, schedule: Q04DX003 (ip), vehicle: water 123 % of control | dose: 100.0 mg/kg/injection, schedule: Q04DX003 (ip), vehicle: water 119 % of control | dose: 125.0 mg/kg/injection, schedule: Q04DX003 (ip), vehicle: water 119 % of control | dose: 128.0 mg/kg/injection, schedule: Q01DX001 (ip), vehicle: other 119 % of control | dose: 128.0 mg/kg/injection, schedule: Q01DX001 (iv), vehicle: alkali diluted with saline 119 % of control | dose: 128.0 mg/kg/injection, schedule: Q01DX001 (oral), vehicle: other 104 % of control | dose: 128.0 mg/kg/injection, schedule: Q01DX001 (sc), vehicle: alkali diluted with saline 120 % of control | dose: 128.0 mg/kg/injection, schedule: Q01DX009 (sc), vehicle: alkali diluted with saline 96 % of control | dose: 128.0 mg/kg/injection, schedule: Q08DX002 (ip), vehicle: alkali diluted with saline 124 % of control | dose: 128.0 mg/kg/injection, schedule: Q08DX002 (ip), vehicle: other 116 % of control | dose: 200.0 mg/kg/injection, schedule: Q04DX003 (ip), vehicle: water 124 % of control | dose: 256.0 mg/kg/injection, schedule: Q01DX001 (ip), vehicle: other 118 % of control | dose: 256.0 mg/kg/injection, schedule: Q01DX001 (oral), vehicle: other 108 % of control | dose: 256.0 mg/kg/injection, schedule: Q01DX009 (ip), vehicle: alkali diluted with saline 87 % of control | dose: 512.0 mg/kg/injection, schedule: Q01DX001 (oral), vehicle: other 111 % of control | dose: 1024.0 mg/kg/injection, schedule: Q01DX001 (ip), vehicle: other 122 % of control | dose: 1024.0 mg/kg/injection, schedule: Q01DX001 (oral), vehicle: alkali diluted with saline 117 % of control | dose: 1024.0 mg/kg/injection, schedule: Q01DX001 (oral), vehicle: other 109 % of control
active: dose: 8.0 mg/kg/injection, schedule: Q03HX024 (ip), vehicle: alkali diluted with saline 152 % of control | dose: 8.0 mg/kg/injection, schedule: Q03HX024 (ip), vehicle: saline 153 % of control | dose: 16.0 mg/kg/injection, schedule: Q03HX024 (ip), vehicle: alkali diluted with saline 194 % of control | dose: 180.0 mg/kg/injection, schedule: Q04DX003 (ip), vehicle: water 159 % of control | dose: 250.0 mg/kg/injection, schedule: Q04DX003 (ip), vehicle: water 156 % of control | dose: 256.0 mg/kg/injection, schedule: Q01DX005 (iv), vehicle: alkali diluted with saline 150 % of control | dose: 256.0 mg/kg/injection, schedule: Q04DX003 (ip), vehicle: alkali diluted with saline 163 % of control | dose: 256.0 mg/kg/injection, schedule: Q04DX003 (ip), vehicle: other 157 % of control | dose: 300.0 mg/kg/injection, schedule: Q04DX003 (ip), vehicle: water 161 % of control and 176 % of control | dose: 512.0 mg/kg/injection, schedule: Q04DX003 (ip), vehicle: alkali diluted with saline 182 % of control | dose: 512.0 mg/kg/injection, schedule: Q04DX003 (ip), vehicle: other 168 % of control | dose: 512.0 mg/kg/injection, schedule: Q08DX002 (ip), vehicle: alkali diluted with saline 151 % of control | dose: 833.0 mg/kg/injection, schedule: Q04DX003 (ip), vehicle: water 182 % of control | dose: 1024.0 mg/kg/injection, schedule: Q08DX002 (ip), vehicle: alkali diluted with saline 160 % of control

N#Cc1cnn(-c2ccc([N+](=O)[O-])cc2)c1N
inactive: dose: 100.0 mg/kg/injection, schedule: Q04DX003 (ip), vehicle: saline with Tween-80 111 % of control | dose: 200.0 mg/kg/injection, schedule: Q04DX003 (ip), vehicle: saline with Tween-80 100 % of control | dose: 400.0 mg/kg/injection, schedule: Q04DX003 (ip), vehicle: saline with Tween-80 100 % of control
